The target in this experiment is ROCK2 (human) (UniProt O75116). As to the kind of experiment: Inhibition of ROCK2 Kinase Activity.
Chain of ROCK2 (human) (O75116 whole entry, looked up): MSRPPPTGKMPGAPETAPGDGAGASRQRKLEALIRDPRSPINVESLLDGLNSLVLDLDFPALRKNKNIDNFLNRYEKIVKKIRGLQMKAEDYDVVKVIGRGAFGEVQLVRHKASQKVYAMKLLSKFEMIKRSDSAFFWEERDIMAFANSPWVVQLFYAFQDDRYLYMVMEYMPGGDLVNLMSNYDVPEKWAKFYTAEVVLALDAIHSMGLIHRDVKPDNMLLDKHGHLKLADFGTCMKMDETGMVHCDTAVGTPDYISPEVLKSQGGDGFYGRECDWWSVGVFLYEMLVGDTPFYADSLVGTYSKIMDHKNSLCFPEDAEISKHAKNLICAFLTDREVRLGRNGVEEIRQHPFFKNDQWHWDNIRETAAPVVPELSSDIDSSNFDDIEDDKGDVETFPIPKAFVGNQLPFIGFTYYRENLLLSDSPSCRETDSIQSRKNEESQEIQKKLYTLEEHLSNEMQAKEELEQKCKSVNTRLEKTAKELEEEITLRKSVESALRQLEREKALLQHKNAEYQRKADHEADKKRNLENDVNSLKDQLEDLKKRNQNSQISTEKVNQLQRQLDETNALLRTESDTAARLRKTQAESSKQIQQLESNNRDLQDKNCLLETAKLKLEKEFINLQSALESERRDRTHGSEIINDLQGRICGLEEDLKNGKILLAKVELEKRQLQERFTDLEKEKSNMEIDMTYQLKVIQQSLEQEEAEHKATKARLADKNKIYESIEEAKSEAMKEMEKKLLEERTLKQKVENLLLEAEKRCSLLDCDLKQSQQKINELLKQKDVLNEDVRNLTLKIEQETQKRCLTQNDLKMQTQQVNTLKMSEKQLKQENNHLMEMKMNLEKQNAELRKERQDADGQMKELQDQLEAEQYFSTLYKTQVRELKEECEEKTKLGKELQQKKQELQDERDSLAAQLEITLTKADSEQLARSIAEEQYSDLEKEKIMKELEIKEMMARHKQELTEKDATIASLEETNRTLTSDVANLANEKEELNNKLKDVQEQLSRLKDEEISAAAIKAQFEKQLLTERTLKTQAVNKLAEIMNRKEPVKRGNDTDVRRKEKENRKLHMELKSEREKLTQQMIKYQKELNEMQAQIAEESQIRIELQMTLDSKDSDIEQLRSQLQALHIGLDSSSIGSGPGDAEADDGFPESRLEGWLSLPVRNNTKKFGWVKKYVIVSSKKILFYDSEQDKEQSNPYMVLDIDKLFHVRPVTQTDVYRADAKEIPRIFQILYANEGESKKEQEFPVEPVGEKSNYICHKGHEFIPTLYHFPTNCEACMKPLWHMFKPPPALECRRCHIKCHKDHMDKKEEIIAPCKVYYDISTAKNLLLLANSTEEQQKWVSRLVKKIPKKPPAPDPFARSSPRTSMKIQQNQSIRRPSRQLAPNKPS
On to `NC(c1ccc(C(=O)Nc2ccncc2)cc1)C1CCCN1C(=O)C1(c2ccc(F)cc2)CC1` (stereo not given), for which the IC50 (usually the concentration that gives 50% inhibition) is 500 to 5000 nM. Next, `Cc1ccccc1CC(=O)N(C)CC(N)c1ccc(C(=O)Nc2ccncc2)cc1` (stereo not given): 500 to 5000 nM. Next, `NC(c1ccc(C(=O)Nc2ccncc2)cc1)C1CCCN1C(=O)Cc1ccc(O)c([N+](=O)[O-])c1` (stereo not given): 500 to 5000 nM; `COc1ccc(C(NC(=O)CC(N)c2ccc(C(=O)Nc3ccncc3)cc2)c2ccc(OC)cc2)cc1` (stereo not given): 50 to 500 nM. `CC(C)(C)c1ccc(CCNC(=O)CC(N)c2ccc(C(=O)Nc3ccncc3)cc2)cc1` (stereo not given) yielded a half-inhibitory concentration (IC50) of 50 to 500 nM. Turning to `NC(c1ccc(C(=O)Nc2ccncc2)cc1)C1CCCN1C(=O)C1(c2ccc(F)cc2Cl)CC1` (stereo not given), the IC50 was 500 to 5000 nM. Next, `NC(c1ccc(C(=O)Nc2ccncc2)cc1)C1CCCN1C(=O)C1(c2ccc(Cl)c(Cl)c2)CC1` (stereo not given): 500 to 5000 nM; `NC(c1ccc(C(=O)Nc2ccncc2)cc1)C1CCCN1C(=O)Cc1cccc2ccccc12` (stereo not given): 500 to 5000 nM; `CC(NC(=O)CC(N)c1ccc(C(=O)Nc2ccncc2)cc1)c1ccccc1` (stereo not given): 50 to 500 nM. The compound `NC(c1ccc(C(=O)Nc2ccncc2)cc1)C1CCCN1C(=O)Cc1c(Cl)cccc1Cl` (stereo not given) registered an IC50 of 500 to 5000 nM. `NC(CC(=O)NCCc1c(Cl)cccc1Cl)c1ccc(C(=O)Nc2ccncc2)cc1` (stereo not given) had an IC50 of 50 to 500 nM. The same measure for `Cc1ccc(CNC(=O)CC(N)c2ccc(C(=O)Nc3ccncc3)cc2)cc1` (stereo not given): 50 to 500 nM. The same measure for `NC(CNC(=O)C1(c2ccc(F)c(F)c2)CCCC1)c1ccc(C(=O)Nc2ccncc2)cc1` (stereo not given): 50 to 500 nM; for `COc1ccc(CNC(=O)CC(N)c2ccc(C(=O)Nc3ccncc3)cc2)cc1OC` (stereo not given): 50 to 500 nM.

The compound `CNS(=O)(=O)c1ccc(C(=O)NCC(N)c2ccc(C(=O)Nc3ccncc3)cc2)cc1` (stereo not given) showed an IC50 of 500 to 5000 nM.

The compound `NC(CC(=O)NCCc1ccc(C(F)(F)F)cc1)c1ccc(C(=O)Nc2ccncc2)cc1` (stereo not given) gave a concentration for half-maximal inhibition (IC50) of 50 to 500 nM. `CN(CCO)C(=O)CC(N)c1ccc(C(=O)Nc2ccncc2)cc1` (stereo not given): the IC50 was in the range of 50 to 500 nM. In the case of `NC(CC(=O)NCCc1ccc(Cl)cc1)c1ccc(C(=O)Nc2ccncc2)cc1` (stereo not given), the IC50 lay within 50 to 500 nM. With `NC(c1ccc(C(=O)Nc2ccncc2)cc1)C1CCCN1C(=O)Cc1ccc(F)cc1Cl` (stereo not given), the IC50 lay in the range of 500 to 5000 nM.

As to `Cc1cccc(C(=O)NCC(N)c2ccc(C(=O)Nc3ccncc3)cc2)c1` (stereo not given), the IC50 is 500 to 5000 nM. As for `Nc1c(C(=O)NCC(N)c2ccc(C(=O)Nc3ccncc3)cc2)cnn1-c1ccc(F)cc1` (stereo not given), the IC50 lay within 500 to 5000 nM. `CN(C)CCCC(=O)NCC(N)c1ccc(C(=O)Nc2ccncc2)cc1` (stereo not given) yielded an IC50 of 500 to 5000 nM.

Turning to `NC(CNC(=O)NC1CCCCC1)c1ccc(C(=O)Nc2ccncc2)cc1` (stereo not given), the half-maximal inhibitory concentration (IC50) lay within 500 to 5000 nM. With `NC(CNC(=O)[C@H]1CCC(=O)N1)c1ccc(C(=O)Nc2ccncc2)cc1` (stereo not given in full), the IC50 lay in the range of 50 to 500 nM. Next, `NC(c1ccc(C(=O)Nc2ccncc2)cc1)C1CCCN1C(=O)C1CCOc2ccccc21` (stereo not given): 500 to 5000 nM; `NC(c1ccc(C(=O)Nc2ccncc2)cc1)C1CCCN1C(=O)C1CCCc2sccc21` (stereo not given): 50 to 500 nM. `CC[C@H](NC(=O)CC(N)c1ccc(C(=O)Nc2ccncc2)cc1)c1ccccc1` (stereo not given in full) came in with an IC50 of 50 to 500 nM. `NC(CC(=O)NC1Cc2ccccc2C1)c1ccc(C(=O)Nc2ccncc2)cc1` (stereo not given) showed an IC50 of 50 to 500 nM. On to `CN(CC(N)c1ccc(C(=O)Nc2ccncc2)cc1)C(=O)C1(c2ccc(Cl)cc2)CC1` (stereo not given), for which the IC50 fell in the range of 500 to 5000 nM. As for `NC(CC(=O)NCc1ccccc1OC(F)(F)F)c1ccc(C(=O)Nc2ccncc2)cc1` (stereo not given), the IC50 lay in the range of 50 to 500 nM. Turning to `CN(CC(N)c1ccc(C(=O)Nc2ccncc2)cc1)C(=O)C1(c2ccc(F)c(F)c2)CC1` (stereo not given), the IC50 fell in the range of 500 to 5000 nM.

`N[C@H](CC(=O)N[C@H]1CCCc2ccccc21)c1ccc(C(=O)Nc2ccncc2)cc1` had a 50% inhibitory concentration (IC50) of 50 to 500 nM. The compound `NC(CC(=O)NCc1ccccc1F)c1ccc(C(=O)Nc2ccncc2)cc1` (stereo not given) displayed an IC50 of 50 to 500 nM. With `CC(C)(C(=O)N1CCCC1C(N)c1ccc(C(=O)Nc2ccncc2)cc1)c1ccc(F)c(Cl)c1` (stereo not given), the IC50 is 500 to 5000 nM. On to `NC(c1ccc(C(=O)Nc2ccncc2)cc1)C1CCCN1C(=O)C1CCOc2ccc(F)cc21` (stereo not given), for which the IC50 is 500 to 5000 nM.

The compound `NC(CC(=O)NCc1cccs1)c1ccc(C(=O)Nc2ccncc2)cc1` (stereo not given) gave an IC50 of 50 to 500 nM. `NC(CC(=O)NC1CCN(Cc2ccccc2)CC1)c1ccc(C(=O)Nc2ccncc2)cc1` (stereo not given) displayed a half-maximal inhibitory concentration (IC50) of 50 to 500 nM.

Compound `NC(CC(=O)NCc1ccc([N+](=O)[O-])cc1)c1ccc(C(=O)Nc2ccncc2)cc1` (stereo not given) yielded an IC50 of 50 to 500 nM.

`NC(CNC(=O)Nc1ccc(F)cc1)c1ccc(C(=O)Nc2ccncc2)cc1` (stereo not given) showed an IC50 of 50 to 500 nM. Next, `NC(c1ccc(C(=O)Nc2ccncc2)cc1)C1CCCN1C(=O)Cc1cccc(F)c1F` (stereo not given): 500 to 5000 nM; `N[C@H](CNC(=O)C1(c2ccc(F)cc2)CCCC1)c1ccc(C(=O)Nc2ccncc2)cc1`: 50 to 500 nM. For `CN(CC(N)c1ccc(C(=O)Nc2ccncc2)cc1)C(=O)C1(c2ccc(F)cc2)CC1` (stereo not given), the IC50 fell in the range of 500 to 5000 nM. Consider `COc1ccc(NC(=O)CC(N)c2ccc(C(=O)Nc3ccncc3)cc2)cc1` (stereo not given), for which the IC50 fell in the range of 50 to 500 nM. The compound `NC(CNC(=O)[C@@H]1CCC(=O)N1)c1ccc(C(=O)Nc2ccncc2)cc1` (stereo not given in full) registered an IC50 of 500 to 5000 nM.

Compound `NC(CNC(=O)CCC1CCCC1)c1ccc(C(=O)Nc2ccncc2)cc1` (stereo not given) yielded an IC50 of 50 to 500 nM.

For the origin of these results see the Kinase Knowledgebase extract (Sharma et al. 2016).
